One experiment relates to MV4;11 cells. The experiment can be described thus: Cell viability assay (CellTiter-Glo) in MV4;11 cells, alone or with gilteritinib. The class given is cell-based. The note with it: Homo sapiens, MV4;11 cells, CellTiter-Glo, read-out: MV4. Background: Cellular ATP, detected with luciferase, serves as a proxy for viable cell number.
A further experiment concerns MOLM-13 cells. The experiment can be described thus: Cell viability assay (CellTiter-Glo) in MOLM-13 cells, alone or with gilteritinib. Type of experiment: cell-based. The following applies: Homo sapiens, MOLM-13 cells, CellTiter-Glo.
The mark [1] stands for this setting: MV4-11, 72 h, compound alone (without gilteritinib), three days, 11 IC50.
[2] abbreviates: MV4-11, 72 h, with gilteritinib 10 nM, three days, 11 IC50 gilteritinib.
[3] abbreviates: MOLM-13, 72 h, compound alone (without gilteritinib), three days, read-out: MOLM-13 IC50.
The mark [4] stands for this setting: MOLM-13, 72 h, with gilteritinib 20 nM, three days, read-out: MOLM-13 IC50 gilteritinib.
[5] abbreviates: MV4-11, 72 h, compound with gilteritinib 10 nM, three days, 11 IC50 gilteritinib.
Setting [6] is: MOLM-13, 72 h, compound with gilteritinib 20 nM, three days, read-out: MOLM-13 IC50 gilteritinib.

The structures appear in SMILES notation. Where two headings read alike, the source gives them in different places. Bounds are passed on as bounds.

On to `O=C1CCC(N2C(=O)c3ccc(NCCCC4(C(=O)N5CCC(n6cc(-c7cnc8ccccc8n7)cn6)CC5)CC4)cc3C2=O)C(=O)N1` (stereo not drawn) [GS-141, 2-(2,6-Dioxopiperidin-3-yl)-5-((3-(1-(4-(4-(quinoxalin-2-yl)-1H-pyrazol-1-yl)piperidine-1-carbonyl)cyclopropyl)propyl)amino)isondoline-1,3-dione], for which the IC50 in the experiment with MV4;11 cells (setting [1]), with MV4;11 cells (setting [2]), in the experiment with MOLM-13 cells (setting [3]) and with MOLM-13 cells (setting [4]) was > 1000 nM each time.
Consider `O=C(CN1CC(N2CCN(c3ccccn3)CC2)C1)NCc1ccc2c(c1)C(=O)N(C1CCC(=O)NC1=O)C2=O` (stereo not drawn) [GS-345, N-((2-(2,6-Dioxopiperidin-3-yl)-1,3-dioxoisoindolin-5-yl)methyl)-2-(3-(4-(pyridin-2-yl)piperazin-1-yl)azetidin-1-yl)acetamide], for which the IC50 with MV4;11 cells (setting [1]), with MV4;11 cells (setting [2]), in the experiment on MOLM-13 cells (setting [3]) and in the experiment with MOLM-13 cells (setting [4]) was > 1000 nM each time.
With `O=C1CCC(N2Cc3c(NC4CCC(Nc5cccc(N6CCC(n7cc(-c8cnc9ccccc9n8)cn7)CC6)c5)CC4)cccc3C2=O)C(=O)N1` (stereo not drawn) [GS-378, 3-(1-Oxo-4-((4-((3-(4-(4-(quinoxalin-2-yl)-1H-pyrazol-1-yl)piperidin-1-yl)phenyl)amino)cyclohexyl)amino)isoindolin-2-yl)piperidine-2,6-dione], the IC50 in the experiment with MV4;11 cells (setting [1]) is 10 to 100 nM; in the experiment with MV4;11 cells (setting [2]), < 10 nM; in the experiment with MOLM-13 cells (setting [3]) it was 10 to 100 nM; with MOLM-13 cells (setting [4]), < 10 nM.
Turning to `O=C1CCC(N2C(=O)c3ccc(NC[C@H]4C[C@H](n5cc(-c6cccnc6)c(C6CC6)n5)C4)cc3C2=O)C(=O)N1` (stereo partly drawn) [GS-268, 5-(((trans-3-(3-Cyclopropyl-4-(pyridin-3-yl)-1H-pyrazol-1-yl)cyclobutyl)methyl)amino)-2-(2,6-dioxopiperidin-3-yl)isoindoline-1,3-dione], the IC50 with MV4;11 cells (setting [1]) lay in the range of 100 to 1000 nM; with MV4;11 cells (setting [2]), 10 to 100 nM; in the experiment on MOLM-13 cells (setting [3]), 100 to 1000 nM; in the experiment with MOLM-13 cells (setting [4]), 10 to 100 nM.
Regarding `Cc1cccc(-c2cn([C@H]3C[C@H](CNc4ccc5c(c4)C(=O)N(C4CCC(=O)NC4=O)C5=O)C3)nc2C2CC2)n1` (stereo partly drawn) [GS-589, 5-(((trans-3-(3-Cyclopropyl-4-(6-methylpyridin-2-yl)-1H-pyrazol-1-yl)cyclobutyl)methyl)amino)-2-(2,6-dioxopiperidin-3-yl)isoindoline-1,3-dione], the IC50 was 10 to 100 nM in the experiment on MV4;11 cells (setting [1]), < 10 nM in the experiment with MV4;11 cells (setting [5]), 10 to 100 nM with MOLM-13 cells (setting [3]) and < 10 nM in the experiment with MOLM-13 cells (setting [6]).
`O=C1CCC(N2C(=O)c3ccc(NC[C@H]4C[C@H](n5cc(-c6nccc7[nH]ccc67)c(C6CC6)n5)C4)cc3C2=O)C(=O)N1` (stereo partly drawn) [GS-278, 5-(((trans-3-(3-Cyclopropyl-4-(1H-pyrrolo[3,2-c]pyridin-4-yl)-1H-pyrazol-1-yl)cyclobutyl)methyl)amino)-2-(2,6-dioxopiperidin-3-yl)isoindoline-1,3-dione]: the IC50 with MV4;11 cells (setting [1]) is < 10 nM; in the experiment with MV4;11 cells (setting [2]), < 10 nM; with MOLM-13 cells (setting [3]), 10 to 100 nM; in the experiment with MOLM-13 cells (setting [4]) it was < 10 nM.
Take `O=C1CCC(N2C(=O)c3ccc(NCCC[C@H]4C[C@H](n5cc(-c6cnc7cc(N8CCOCC8)ccc7n6)cn5)C4)cc3C2=O)C(=O)N1` (stereo partly drawn) [GS-396, 2-(2,6-Dioxopiperidin-3-yl)-5-((3-(trans-3-(4-(6-morpholinoquinoxalin-2-yl)-1H-pyrazol-1-yl)cyclobutyl)propyl)amino)isoindoline-1,3-dione]: the IC50 is 10 to 100 nM with MV4;11 cells (setting [1]), < 10 nM in the experiment with MV4;11 cells (setting [2]), 10 to 100 nM in the experiment on MOLM-13 cells (setting [3]) and < 10 nM in the experiment on MOLM-13 cells (setting [4]).
In the case of `COc1cccnc1-c1cn([C@H]2C[C@H](CNc3ccc4c(c3)C(=O)N(C3CCC(=O)NC3=O)C4=O)C2)nc1C1CC1` (stereo partly drawn) [GS-262, 5-(((trans-3-(3-Cyclopropyl-4-(3-methoxypyridin-2-yl)-1H-pyrazol-1-yl)cyclobutyl)methyl)amino)-2-(2,6-dioxopiperidin-3-yl)isoindoline-1,3-dione], the IC50 in the experiment on MV4;11 cells (setting [1]), in the experiment with MV4;11 cells (setting [2]), with MOLM-13 cells (setting [3]) and in the experiment with MOLM-13 cells (setting [4]) was < 10 nM each time.
Turning to `CC(C)n1ccc2c(-c3cn([C@H]4C[C@H](CNc5ccc6c(c5)C(=O)N(C5CCC(=O)NC5=O)C6=O)C4)nc3C3CC3)nccc21` (stereo partly drawn) [GS-623, 5-(((trans-3-(3-Cyclopropyl-4-(1-isopropyl-1H-pyrrolo[3,2-c]pyridin-4-yl)-1H-pyrazol-1-yl)cyclobutyl)methyl)amino)-2-(2,6-dioxopiperidin-3-yl)isoindoline-1,3-dione], the IC50 in the experiment on MV4;11 cells (setting [1]) is 10 to 100 nM; with MV4;11 cells (setting [5]) it was < 10 nM; in the experiment on MOLM-13 cells (setting [3]), 10 to 100 nM; in the experiment on MOLM-13 cells (setting [6]), < 10 nM.
Regarding `O=C1CCC(N2Cc3cc(NCc4cccc(N5CCC(n6cc(-c7cnc8ccccc8n7)cn6)CC5)c4)ccc3C2=O)C(=O)N1` (stereo not drawn) [GS-162, 3-(1-Oxo-5-((3-(4-(4-(quinoxalin-2-yl)-1H-pyrazol-1-yl)piperidin-1-yl)benzyl)amino)isoindolin-2-yl)piperidine-2,6-dione], the IC50 is > 1000 nM with MV4;11 cells (setting [1]), > 1000 nM in the experiment on MV4;11 cells (setting [2]), > 1000 nM in the experiment on MOLM-13 cells (setting [3]) and 10 to 100 nM in the experiment on MOLM-13 cells (setting [4]).
Consider `O=C1CCC(N2C(=O)c3ccc(NCCCC(=O)N4CCN(c5ccccn5)CC4)cc3C2=O)C(=O)N1` (stereo not drawn) [GS-318, 2-(2,6-Dioxopiperidin-3-yl)-5-((4-oxo-4-(4-(pyridin-2-yl)piperazin-1-yl)butyl)amino)isoindoline-1,3-dione], for which the IC50 is 100 to 1000 nM in the experiment on MV4;11 cells (72 h, compound alone (without gilteritinib), three days, 11 IC50); 10 to 100 nM in the experiment on MV4;11 cells (72 h, with gilteritinib 10 nM, three days, 11 IC50 gilteritinib); > 1000 nM in the experiment on MOLM-13 cells (72 h, compound alone (without gilteritinib), three days, read-out: MOLM-13 IC50); 10 to 100 nM in the experiment on MOLM-13 cells (72 h, with gilteritinib 20 nM, three days, read-out: MOLM-13 IC50 gilteritinib).
Turning to `O=C1CCC(N2Cc3ccc(CCCCC(=O)N4CCC(n5cc(-c6cnc7ccccc7n6)cn5)CC4)cc3C2=O)C(=O)N1` (stereo not drawn) [GS-161, 3-(1-Oxo-6-(5-oxo-5-(4-(4-(quinoxalin-2-yl)-1H-pyrazol-1-yl)piperidin-1-yl)pentyl)isoindolin-2-yl)piperidine-2,6-dione], the IC50 in the experiment with MV4;11 cells (setting [1]) was 100 to 1000 nM; in the experiment on MV4;11 cells (setting [2]) it was 10 to 100 nM; in the experiment on MOLM-13 cells (setting [3]), > 1000 nM; in the experiment with MOLM-13 cells (setting [4]) it was 10 to 100 nM.
With `O=C1CCC(N2Cc3c(Nc4ccnc(Nc5cccc(N6CCC(c7ccccc7)CC6)c5)n4)cccc3C2=O)C(=O)N1` (stereo not drawn) [GS-075], the IC50 in the experiment with MV4;11 cells (setting [1]) is 100 to 1000 nM; in the experiment with MV4;11 cells (setting [2]) it was 10 to 100 nM; in the experiment with MOLM-13 cells (setting [3]), 100 to 1000 nM; in the experiment on MOLM-13 cells (setting [4]), 10 to 100 nM.
Turning to `O=C1CCC(N2C(=O)c3ccc(NCCC[C@H]4C[C@H](n5cc(-c6cnc7ccc(Cl)cc7n6)cn5)C4)cc3C2=O)C(=O)N1` (stereo partly drawn) [GS-206, 5-((3-(trans-3-(4-(7-Chloroquinoxalin-2-yl)-1H-pyrazol-1-yl)cyclobutyl)propyl)amino)-2-(2,6-dioxopiperidin-3-yl)isoindoline-1,3-dione], the IC50 in the experiment on MV4;11 cells (setting [1]) was in the range of 10 to 100 nM; in the experiment on MV4;11 cells (setting [2]), 10 to 100 nM; in the experiment with MOLM-13 cells (setting [3]), 100 to 1000 nM; in the experiment with MOLM-13 cells (setting [4]) it was 10 to 100 nM.
As for `O=C1CCC(N2C(=O)c3ccc(NC[C@H]4C[C@H](n5cc(-c6cc7cc[nH]c7cn6)c(C6CC6)n5)C4)cc3C2=O)C(=O)N1` (stereo partly drawn) [GS-279, 5-(((trans-3-(3-Cyclopropyl-4-(1H-pyrrolo[2,3-c]pyridin-5-yl)-1H-pyrazol-1-yl)cyclobutyl)methyl)amino)-2-(2,6-dioxopiperidin-3-yl)isoindoline-1,3-dione], the IC50 in the experiment with MV4;11 cells (setting [1]) was 100 to 1000 nM; with MV4;11 cells (setting [2]), 10 to 100 nM; in the experiment with MOLM-13 cells (setting [3]) it was > 1000 nM; with MOLM-13 cells (setting [4]) it was 10 to 100 nM.
On to `O=C1CCC(N2C(=O)c3ccc(NCCCCCC(=O)N4CCC(O)(c5ccccc5)CC4)cc3C2=O)C(=O)N1` (stereo not drawn) [GS-333, 2-(2,6-Dioxopiperidin-3-yl)-5-((6-(4-hydroxy-4-phenylpiperidin-1-yl)-6-oxohexyl)amino)isoindoline-1,3-dione], for which the IC50 is > 1000 nM in the experiment with MV4;11 cells (setting [1]), 100 to 1000 nM in the experiment on MV4;11 cells (setting [2]), > 1000 nM in the experiment on MOLM-13 cells (setting [3]) and 100 to 1000 nM with MOLM-13 cells (setting [4]).
As for `CN1CCN(C2CCN(C(=O)CCCCCNc3ccc4c(c3)C(=O)N(C3CCC(=O)NC3=O)C4=O)CC2)CC1` (stereo not drawn) [GS-013, 2-(2,6-Dioxopiperidin-3-yl)-5-((6-(4-(4-methylpiperazin-1-yl)piperidin-1-yl)-6-oxohexyl)amino)isoindoline-1,3-dione], the IC50 with MV4;11 cells (MV4-11, 72 h, with 10 nM gilteritinib, 3 days, 11 IC50 gilteritinib) is > 10000 nM; in the experiment with MV4;11 cells (MV4-11, 72 h, without gilteritinib, 3 days, 11 IC50), > 10000 nM; in the experiment with MOLM-13 cells (MOLM-13, 72 h, with 20 nM gilteritinib, 3 days, read-out: MOLM-13 IC50 gilteritinib), 1850 nM; with MOLM-13 cells (MOLM-13, 72 h, without gilteritinib, 3 days, read-out: MOLM-13 IC50) it was > 10000 nM.
As for `O=C1CCC(N2C(=O)c3ccc(NCCCCCCn4cc(-c5cnc6cccc(C7CCOCC7)c6n5)cn4)cc3C2=O)C(=O)N1` (stereo not drawn) [GS-382], the IC50 is > 1000 nM in the experiment on MV4;11 cells (setting [1]), > 1000 nM in the experiment with MV4;11 cells (setting [2]), > 1000 nM in the experiment with MOLM-13 cells (setting [3]) and 10 to 100 nM in the experiment with MOLM-13 cells (setting [4]).

(Values after patent US20240050428A1 (Cullgen (Shanghai), Inc., priority 2020, published 2024).)
